The results in this text go back to publication PMC3966057 (Theranostics, 2014).

One series relates to 4T1 tumors. Nature of the series: 18F-DPA-714 PET imaging of 4T1 xenograft tumor model. It is filed as in vivo, mouse. Conditions: PET 1 h p.i., tumor volume 100-300 mm^3, FVB mice, mean ± SD.
The test system of the next series is U87MG tumors. Nature of the series: 18F-DPA-714 PET imaging of U87MG xenograft tumor model. It is filed as in vivo, mouse. Conditions: PET 1 h p.i., tumor volume 100-300 mm^3, athymic nude mice, mean ± SD.
The next series relates to HT29 tumors. Nature of the series: 18F-DPA-714 PET imaging of HT29 xenograft tumor model. The following applies: PET 1 h p.i., tumor volume 100-300 mm^3, athymic nude mice, mean ± SD. It is filed as in vivo, mouse.
A further series relates to A549 tumors. Nature of the series: 18F-DPA-714 PET imaging of A549 xenograft tumor model. It is filed as in vivo, mouse. The following applies: PET 1 h p.i., tumor volume 100-300 mm^3, athymic nude mice, mean ± SD.
In another series the test system is RAW264.7 cells. Nature of the series: RAW 264.7 macrophage cell efflux of 18F-DPA-714. Conditions: 2 h incubation with tracer. It is filed as cell-based, mouse.
The subject of the next series is INS-1 tumors. Nature of the series: 18F-DPA-714 PET imaging of INS-1 xenograft tumor model. It is filed as in vivo, mouse. The following applies: PET 1 h p.i., tumor volume 100-300 mm^3, athymic nude mice, mean ± SD.

On to `CCN(CC)C(=O)Cc1c(-c2ccc(OCC[18F])cc2)nn2c(C)cc(C)nc12` [18F-DPA-714], for which the “4T1 tumor uptake of 18F-DPA-714” value with 4T1 tumors is 1.22 ± 0.55 %ID/g. In addition, the “U87MG tumor uptake of 18F-DPA-714” value in the series with U87MG tumors worked out at 1.69 ± 0.67 %ID/g. Besides, the “HT29 tumor uptake of 18F-DPA-714” value in the series with HT29 tumors was 0.91 ± 0.08 %ID/g. In addition, the “A549 tumor uptake of 18F-DPA-714” value in the series on A549 tumors worked out at 0.46 ± 0.28 %ID/g. In the series with RAW264.7 cells, the “Tracer retention after 1 h efflux as share of uptake” value is reported as “around 50%”. The “INS-1 tumor uptake of 18F-DPA-714” value with INS-1 tumors is 1.13 ± 0.33 %ID/g.
